Values quoted from earlier work as cited in patent US20190134140A1, “ORALLY ADMINISTERED COMPOSITION FOR TREATING CYSTIC FIBROSIS, COPD, ASTHMA AND OTHER INFLAMMATORY CONDITIONS” (priority 2017, published 2019).
Like-named read-outs stand apart in the source and are kept apart here.

Tests used:
dF508 = dF508 (Homo sapiens, UniProt P13569, DEL508-508)
Sequence of dF508 (P13569 with tags, fused parts or gaps DEL508-508): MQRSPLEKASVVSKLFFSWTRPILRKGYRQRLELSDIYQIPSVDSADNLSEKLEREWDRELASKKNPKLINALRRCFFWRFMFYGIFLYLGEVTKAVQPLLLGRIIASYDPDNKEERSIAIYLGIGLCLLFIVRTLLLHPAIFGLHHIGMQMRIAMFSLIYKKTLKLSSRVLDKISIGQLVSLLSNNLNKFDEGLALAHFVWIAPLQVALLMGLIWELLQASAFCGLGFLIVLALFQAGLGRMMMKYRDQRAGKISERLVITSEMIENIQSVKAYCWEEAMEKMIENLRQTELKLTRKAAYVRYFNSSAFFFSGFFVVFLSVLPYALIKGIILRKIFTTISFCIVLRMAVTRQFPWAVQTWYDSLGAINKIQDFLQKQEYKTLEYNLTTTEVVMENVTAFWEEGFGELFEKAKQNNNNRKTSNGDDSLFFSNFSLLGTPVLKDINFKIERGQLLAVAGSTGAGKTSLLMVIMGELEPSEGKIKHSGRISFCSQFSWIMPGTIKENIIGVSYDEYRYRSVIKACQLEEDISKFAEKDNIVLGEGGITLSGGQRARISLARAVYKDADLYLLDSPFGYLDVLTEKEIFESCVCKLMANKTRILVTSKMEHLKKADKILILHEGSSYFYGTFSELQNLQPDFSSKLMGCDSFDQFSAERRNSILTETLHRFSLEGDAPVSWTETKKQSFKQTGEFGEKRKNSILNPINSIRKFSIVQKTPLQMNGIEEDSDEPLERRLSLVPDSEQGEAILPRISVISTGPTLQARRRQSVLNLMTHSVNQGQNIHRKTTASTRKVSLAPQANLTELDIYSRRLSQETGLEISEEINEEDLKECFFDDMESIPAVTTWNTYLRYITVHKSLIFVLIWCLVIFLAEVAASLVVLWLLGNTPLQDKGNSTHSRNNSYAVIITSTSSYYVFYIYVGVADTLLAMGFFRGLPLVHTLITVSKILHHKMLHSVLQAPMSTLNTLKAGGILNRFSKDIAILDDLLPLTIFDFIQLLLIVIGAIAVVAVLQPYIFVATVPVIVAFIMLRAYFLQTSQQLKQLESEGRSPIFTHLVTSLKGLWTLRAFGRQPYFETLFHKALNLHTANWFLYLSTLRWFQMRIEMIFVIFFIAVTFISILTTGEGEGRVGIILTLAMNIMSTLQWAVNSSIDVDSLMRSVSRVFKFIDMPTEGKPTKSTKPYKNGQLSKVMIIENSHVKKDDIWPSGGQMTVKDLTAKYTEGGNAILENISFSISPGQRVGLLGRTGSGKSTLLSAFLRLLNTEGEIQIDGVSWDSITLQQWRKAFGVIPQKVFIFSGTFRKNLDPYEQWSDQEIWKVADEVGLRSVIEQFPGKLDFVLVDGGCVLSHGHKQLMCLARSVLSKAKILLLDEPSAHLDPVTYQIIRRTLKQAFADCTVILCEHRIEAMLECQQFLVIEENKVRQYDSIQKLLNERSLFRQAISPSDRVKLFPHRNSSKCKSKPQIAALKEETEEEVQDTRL

SMILES	activation of dF508 (dF508)	ciliary beat frequency (ciliary beat frequency)	enhancement in permeability (combined with curcumin)	enhancement in permeability (combined with piperine)	enhancement in permeability (combined with quercetin)
O=c1c(O)c(-c2ccc(O)c(O)c2)oc2cc(O)cc(O)c12 [Quercetin]	activate dF508	increase ciliary beat frequency	–	–	–
Oc1ccc(C=Cc2cc(O)cc(O)c2)cc1 [Resveratrol]	–	–	300%	350%	310%
